Consider 3 molecules from patent JP2012067022A, “ホスホマイシンを有効成分とする魚類のエドワジエラ症治療剤” (Meiji Seika Kaisha Ltd, priority 2010, dated 2012).

Molecules are shown by their SMILES.

The subject of experiment [1] is Edwardsiella tarda E08-18 strain (エドワジエラ・タルダ E08−18株). The experiment in a line: Test Example 3: artificial infection treatment test (2) in red sea bream. The experiment is classed as in vivo. As to conditions: for mortality rate: red sea bream juveniles (27 g), 4.6×10^6 CFU/mL per fish i.p., to day 14 after infection, untreated control 95%.
Experiment [2] has the same test system. The experiment in a line: Test Example 2: artificial infection treatment test (1) in red sea bream. Format: in vivo. As to conditions: 40 mg (potency)/kg oral in feed, 6 days.
In experiment [3] the test system is Edwardsiella tarda (エドワジエラ・タルダ). In words: Test Example 1: in vitro antibacterial activity (MIC, Japanese Society of Chemotherapy method). Format: cell-based. As to conditions: oxytetracycline hydrochloride-resistant strains; result in words.

`CN(C)[C@@H]1C(=O)C(C(N)=O)=C(O)[C@@]2(O)C(=O)C3=C(O)c4c(O)cccc4[C@@](C)(O)[C@H]3[C@H](O)[C@@H]12.Cl` [塩酸オキシテトラサイクリン] showed a mortality rate in experiment [1] (50 mg (potency)/kg oral in feed, 7 days) of 100%.
With `C[C@@H]1O[C@@H]1P(=O)(O)O` [ホスホマイシン・カルシウム, カルシウム塩], the mortality rate is recorded as 10% in experiment [2] (red sea bream juveniles (29 g), 3.6×10^6 CFU/mL per fish i.p., to day 14 after infection, untreated control 95%) and 25% in experiment [1] (40 mg (potency)/kg oral in feed, 6 days).
Regarding `C[C@@H]1O[C@@H]1P(=O)(O)O` [ホスホマイシン], the antibacterial activity result in experiment [3] was “強い抗菌活性を示す”. In addition, the “recovery of feeding activity” value in experiment [2] (red sea bream juveniles, after bacterial inoculation) is reported as “摂餌活性の回復が早まる”; in experiment [1] (red sea bream juveniles, 40 mg (potency)/kg oral in feed, 6 days, compared with oxytetracycline hydrochloride and untreated groups) it was “塩酸オキシテトラサイクリンや無投薬の群よりも摂餌活性の回復が早まる”.
